The source of these data is patent US6627218B2, “Cationic amphiphiles of cholesterol” (The University of Tennessee Research Foundation, priority 1991, dated 2003).

Where a name gives a salt, the structure may show the parent alone.

The target of one data set is protein kinase C (PKC). Briefly: Mixed micelle assay of protein kinase C. To be noted: pure cationic cholesterol derivative; diolefin, phosphatidyl serine and Ca2+ stimulated PKC; read-out: PKC Inhibition IC50. Type of data set: biochemical, rat. As to the method:
As rapidly as possible, brains for 25 Sprague-Dawley rats (150-200 g) were removed, washed with 100 ml of 20 mM TRIS, 1 mM EDTA, 1 mM EGTA, pH 7.5, and homogenized in 150 ml of ice cold 20 mM TRIS, 10 mM EGTA, 2 mM EDTA, 10 mM DTT, 0.25 M sucrose, 2 mM PMSF and 100 μg/ml leupeptin, pH 7.5. The homogenate was immediately centrifuged at 100,000 g for 40 minutes at 4° C. in a Beckman Ti 50.2 rotor. The supernatant was applied to a 2.5×20 cm column of DEAE Sepharose (fast flow) containing 60 of resin equilibrated with 20 mM TRIS, 1 mM EDTA, 1 mM DTT, pH 7.5 (buffer A). The column was washed with 300 ml of buffer A and an additional 200 ml of buffer A containing 0.03 M KCl. Protein kinase C was eluted with a 500 ml continuous KCl gradient (0.03-0.3 M KCl). Fractions of 5 ml volumes were collected. Fractions showing calcium and phospholipid dependence were pooled; the salt concentration was adjusted to 1.5 KCl with the appropriate quantity of solid KCl. The crude sample containing 1.5 M KCl was stirred for 15 minutes and subsequently loaded onto a 1×10 cm column containing 9 ml Phenyl sepharose equilibrated with 1.5 M KCl in 20 mM TRIS, 0.5 mM EGTA, 1 mM DTT, pH 7.5 (buffer B). The column was washed with 90 ml of buffer B containing 1.5 M KCl. PKC was eluted with a 100 ml continuous KCl gradient (1.5-0 M KCl). Fractions of 3 ml volumes were collected. The column was washed with an additional 50 ml of buffer B. Most of the enzyme activity eluted during this stage. Fractions showing calcium and phospholipid dependence were pooled and concentrated to 4 ml using an Amicon ultrafiltration cell fitted with a YM-10 filter. The concentrated sample was loaded onto a 2.5×100 cm column containing 400 ml of Sephacryl S-200 HR beads equilibrated with buffer B containing 10% glycerol (buffer C). Fractions of 3 ml volumes were collected. About 150 ml of buffer was run through; PKC eluted very close to the column void volume. The fractions showing calcium and phospholipid dependence were pooled and loaded onto a 0.5×5 cm column containing 2.5 ml polylysine agarose equilibrated with buffer C. PKC was eluted with a 40 ml continuous KCl gradient (0-0.8 M KCl). Fractions of 1 ml volumes were collected. The first few active fractions were contaminated. The uncontaminated fractions were pooled, concentrated, and diluted with buffer C to remove the high salt content. After reconcentrating, the sample was divided into working portions, frozen in liquid nitrogen and stored at −80° C. Full activity was regained after rapid thawing. Trace impurities (116 k, 66 k, and 50 k Mr) could still be detected when the gel was silver stained heavily. The enzyme gave a specific activity of 200 nmoles phosphate incorporated per minute per milligram of protein when assayed for histone phosphorylation using the Triton mixed micelle assay with 6.5 mole % phosphatidylserine, 2.5 mole % DAG and 100 μM calcium present. Specific activities ranging from 30 nmoles/min/mg to 600 nmoles/min/mg have been observed for PKC using the Triton mixed micelle assay under the same conditions.
Phosphatidylserine and 1,2-diolefin with and without additive were dissolved in a solution of chloroform/methanol (2:1, v/v). Solvent was evaporated with a stream of nitrogen and last traces removed using a vacuum desiccator at 40° C. The lipid films were then solubilized by the addition of 3% Triton X-100, vortexed vigorously for 30 seconds and then incubated at 30° C. for 10 minutes to allow for equilibration. […]

Data set [1] concerns mouse L929 cells. Briefly: Transfection of L929 cells with pUCSV2CAT, CAT activity. On the set-up: Relative CAT Activity: scale not given here. The following applies: for Relative CAT Activity: dispersion with co-lipid DOPE, plasmid pUCSV2CAT, L929 cells. Type of data set: cell-based. As to the method: (§1) The cationic cholesterol derivatives of the invention were mixed with a phospholipid co-lipid in chloroform solution at different molar ratios. The solvent was removed by evaporation under a stream of N2 gas and desiccated in vacuo for at least 30 minutes. The dry lipid film was hydrated in 20 mM Hepes buffer, pH 7.8, overnight. The suspension was sonicated in a bath-type sonicator (Laboratory Supplies, Hicksville, N.Y.) to generate small particle dispersions (average diameter=150 nm). The co-lipid is phosphatidylethanolamine.
Plasmid pUCSV2CAT (approximately 5kb in size) containing the structural gene of E. coli chloramphenicol acetyl transferase (CAT) driven by the SV40 virus early promoter was used as a model for the polyanions to be delivered by the cationic lipid dispersions. DNA was mixed with the cationic lipid dispersions of the invention in 1 ml serum-free M199 medium or McCoy's medium to form DNA/lipid complex. Cultured mammalian cells of about 80-100% confluency in a 6-well plate were washed once with serum-free medium. The DNA/lipid complex was added to the washed cells which were incubated at 37° C. for 5 hours. The cells were washed again and the serum-containing medium was added. Cells were harvested 30-72 hours later and extracted for cellular proteins. The CAT activity in the extracted protein was measured by using either [^14C] chloramphenicol or [^3H] acetyl CoA as a radiolabeled substrate. One activity unit of CAT is defined as nmole of radiolabeled substrate converted to the radiolabeled product in one minute. Protein content in the cell extracts was measured by the Bradford (BIORAD) assay.
Plasmid DNA, pUCSV2CAT, was used as a model compound for polyanions because it contains a structural gene for CAT. The efficiency of intracellular delivery can be readily assayed by the expression of CAT activity in the extracted proteins of the treated cells. Table 1 lists the CAT activity of mouse L929 cells which have been transfected with this plasmid DNA as mediated by various cationic lipid dispersions. In addition, the inhibitory activity of the pure cationic cholesterol derivatives on diolefin, phosphatidyl serine (PS), and Ca^2+stimulated protein kinase C was also measured. This activity was expressed as an IC50 which is the concentration at which 50% of PKC activity was inhibited.

Data set [2] in a line: Formation of homogenous dispersion by sonication. Type of data set: physicochemical. To be noted: sonication in low ionic strength buffer. The method, then: as §1
None of the cationic cholesterol derivatives by themselves form stable homogenous dispersion by sonication in a low ionic strength buffer. When stable dispersions are desired, it was necessary to add an acidic or neutral phospholipid to form mixed lipid dispersion. […] In the case of compound XIV, a minimal ration of phosphatidyl choline (PC) or phosphatidyl ethanolamine (PE) to XIV=4:6 is required. Such non-cationic lipid used in the dispersion is called co-lipid.

In data set [3] the test system is mouse L929 cells. In words: Transfection of L929 cells with pUCSV2CAT, CAT activity. Type of data set: cell-based. To be noted: molar ratio 1:1, L929 cells (FIG. 4).

The term IC50 denotes the concentration that gives 50% inhibition. As usually defined, the melting point is the temperature, or range, at which the solid turns liquid.

Take `CC(C)CCCC(C)C1CCC2C3CC=C4CC(OC(=O)CCC(=O)NCC[N+](C)(C)C)CCC4(C)C3CCC12C` (stereo not drawn) [IX, Cholesteryl-3β-Oxysuccinamidoethylenetrimethylammonium Iodide]: the IC50 at protein kinase C (PKC) is 59 µM. Besides, the “Relative CAT Activity” value in the data set on mouse L929 cells [1] is recorded as 50.
For the compound `CC(C)CCCC(C)C1CCC2C3CC=C4CC(OC(=O)NCCN(C)C)CCC4(C)C3CCC12C` (stereo not drawn) [Compound XIV, 3β[N-(N′,N′-dimethylaminoethane)-carbamoyl]cholesterol], the IC50 on protein kinase C (PKC) is over 1000 µM. Moreover, the “Relative CAT Activity” value in the data set with mouse L929 cells [1] was 75.
With `CC(C)CCCC(C)C1CCC2C3CC=C4CC(OC(=O)CCC(=O)OC(CN(C)C)CN(C)C)CCC4(C)C3CCC12C` (stereo not drawn) [Compound X, 1,3-Bi-Dimethylamino-2-Propyl-Cholesteryl-3β-Oxysuccinate], the IC50 at protein kinase C (PKC) turned out to be 408 µM. For the same compound, the “Relative CAT Activity” value in the data set with mouse L929 cells [1] was determined as 0.5.
In the case of `CC(C)CCCC(C)C1CCC2C3CC=C4CC(C(=O)OC(CN(C)C)C[N+](C)(C)C)CCC4(C)C3CCC12C` (racemic) [Compound VI, 1-Dimethylamino-3-Trimethylammonio-DL-2-Propyl Cholesteryl Carboxylate Iodide Salt], on protein kinase C (PKC), the concentration for half-maximal inhibition (IC50) stood at 11 µM.
Turning to `CC(C)CCCC(C)C1CCC2C3CC=C4CC(C(=O)NCC[N+](C)(C)C)CCC4(C)C3CCC12C` (stereo not drawn) [IV, Cholesteryl-3β-Carboxyamidoethylenetrimethylammonium Iodide], on protein kinase C (PKC), the IC50 was 12 µM.
The compound `CC(C)CCCC(C)C1CCC2C3CC=C4CC(OC(=O)CCC(=O)OCCN(C)CCN(C)C)CCC4(C)C3CCC12C` (stereo not drawn) [XII, 2-{[2-(dimethylamino)ethyl]methylamino}ethyl-Cholesteryl-3β-Oxysuccinate] displayed a melting point of 50 to 52 °C. Besides, the concentration for half-maximal inhibition (IC50) on protein kinase C (PKC) is 164 µM. In addition, the “Relative CAT Activity” value with mouse L929 cells [1] came out at 19.
As for `CC(C)CCCC(C)C1CCC2C3CC=C4CC(OC(=O)CCC(=O)NCCN(C)C)CCC4(C)C3CCC12C` (stereo not drawn) [VIII, Cholesteryl-3β-oxysuccinamidoethylenedimethylamine], the “Minimal ratio of co-lipid (PC or PE) to cationic lipid required to form a uniform dispersion” value in data set [2] is 1 part of PC or PE and 9 parts of compound VIII. For the same compound, the IC50 on protein kinase C (PKC) turned out to be 191 µM. For the same compound, in the data set with mouse L929 cells [1] (DOPE co-lipid, L929 cells (FIG. 5)), the “Content of cationic lipid in DOPE dispersion at maximal DNA delivery activity” value is listed as 20-50%. The “DNA delivery activity of mixed dispersion” value was “only DOPE supported the delivery activity” in the data set on mouse L929 cells [1] (co-lipid DOPE, molar ratio 1:1, L929 cells (FIG. 4)); “None of the acidic lipids, such as PS and phosphatidylglycerol (PG) showed any activity” with mouse L929 cells [3] (acidic co-lipids PS and PG); “little or no activity” in the data set with mouse L929 cells [3] (other neutral co-lipids DOPC, N-methyl-DOPE, N,N-dimethyl DOPE). The “Relative CAT Activity” value in the data set on mouse L929 cells [1] was found to be 100.
For `CC(C)CCCC(C)C1CCC2C3CC=C4CC(C(=O)OC(CN(C)C)CN(C)C)CCC4(C)C3CCC12C` (stereo not drawn) [Compound V, 1,3-Bis-Dimethylamino-2-Propyl-Cholesteryl-3β-Carboxylate], the 50% inhibitory concentration (IC50) on protein kinase C (PKC) worked out at 643 µM. In addition, the “Relative CAT Activity” value in the data set with mouse L929 cells [1] was 2.
For the compound “3β[N-(polyethyleneimine)-carbamoyl]cholesterol [XV]”, in the data set with mouse L929 cells [1], the “Relative CAT Activity” value is recorded as 11.
For `CC(C)CCCC(C)C1CCC2C3CC=C4CC(OC(=O)CCC(=O)OCCN(C)CC[N+](C)(C)C)CCC4(C)C3CCC12C` (stereo not drawn) [XIII, 2-{[2-Trimethylammonio]ethylmethylamino}ethyl-Cholesteryl-3β-Oxysuccinate Iodine Salt], at protein kinase C (PKC), the IC50 is 20 µM.
Turning to `CC(C)CCCC(C)C1CCC2C3CC=C4CC(C(=O)NCCN)CCC4(C)C3CCC12C` (stereo not drawn) [Compound VII, Cholesteryl-3β-Carboxyamidoethyleneamine], at protein kinase C (PKC), the IC50 was determined as 246 µM.
Compound `CC(C)CCCC(C)C1CCC2C3CC=C4CC(C(=O)NCCN(C)C)CCC4(C)C3CCC12C` (stereo not drawn) [Compound III, Cholesteryl-3β-Carboxyamidoethylenedimethylamine] came in with a melting point of 167 to 169 °C. The IC50 on protein kinase C (PKC) was 258 µM. Also, the “Relative CAT Activity” value in the data set with mouse L929 cells [1] was 18.
Turning to `CC(C)CCCC(C)C1CCC2C3CC=C4CC(OC(=O)CCC(=O)OC(CN(C)C)C[N+](C)(C)C)CCC4(C)C3CCC12C` (racemic) [Compound XI, 1-Dimethylamino-3-Trimethylammonio-DL-2-Propyl-Cholesteryl-3β-Oxysuccinate Iodide Salt], the IC50 on protein kinase C (PKC) stood at 15 µM.
